The text below walks through data of patent publication US8846013B2, “Topical application of 1-hydroxyl-3,5-BIS(4′hydroxy styryl)benzene” (Johnson & Johnson Consumer Companies, Inc., priority 2012, dated 2014).

In one experiment the test system is IL-8 cytokine release. Nature of the experiment: Anti-inflammatory activity: IL-8 cytokine release from UV-exposed epidermal equivalents (EPI 200 HCF). The format is cell-based, human. Particulars: summary statement. As to the method: The topical anti-inflammatory activities of 1-hydroxyl 3,5-bis(4′hydroxyl styryl)benzene and its piperazine salt were evaluated as follows.
Epidermal equivalents (EPI 200 HCF), multilayer and differentiated epidermis consisting of normal human epidermal keratinocytes, were purchased from MatTek (Ashland, Mass.). Upon receipt, epidermal equivalents were incubated for 24 hours at 37° C. in maintenance medium without hydrocortisone. Equivalents were topically treated (2 mg/cm^2) with 1-hydroxyl 3,5-bis(4′hydroxyl styryl)benzene thereof in a 70:30 Ethanol-Propylene glycol vehicle two hours before exposure to solar ultraviolet light (1000W-Oriel solar simulator equipped with a 1-mm Schott WG 320 filter; UV dose applied: 70 kJ/m^2 as measured at 360 nm). The equivalents were incubated for 24 hours at 37° C. with maintenance medium then supernatants were analyzed for IL-8 cytokine release using commercially available kits (Millipore Corp., Billerica, Mass.).

The next experiment relates to Collagen 1A. In words: Induction of Collagen1A gene expression in primary human dermal fibroblasts (quantitative PCR). The format is cell-based. Particulars: for Collagen 1A Normalized Fold-change in PCR (Mean): 48 hr, normalized to GAPDH, from untreated. As for the experimental part: (§1) Primary human dermal fibroblasts (Lifeline Cell Technologies, Frederick, Md.) were grown until confluence in DMEM media (Invitrogen/Life Technologies, Carlsbad, 10 CA) with 10% FBS and 1% Penicillin-Streptomycin on 24 well tissue culture plates, followed by treatment with 1-hydroxyl 3,5-bis(4′hydroxyl styryl)benzene (0.1 ug/mL) with and without TNF-a for 48 hr. Post-treatment, cells were lysed using RLT buffer and total RNA was isolated using the RNeasy Mini Kit (Qiagen, Valencia, Calif.). Quantitative PCR was performed using the Gene Amp PCR System 9700 and 7500 Real Time PCR 15 System cycler (Applied Biosystems)/Life Technologies, Carlsbad, Calif.). Elastin (Qiagen) and Collagen1α1 primers (custom sequence-sense: 5′-TCC-CCA-GCT-GTC-TTA-TGG CT-3′ (SEQ ID NO: 1) and anti-sense: 5′-CAG-GCA-CGG-AAA-TTC-CTC-C-3′ (SEQ ID NO: 2)) were used. The housekeeping gene GAPDH was used for normalization (custom primer sequence: F 5′-ATC-TCT-GCC-CCC-TCT-GCT-G-3′ (SEQ ID NO: 3) and R 5′-ATG-GTT-CAC-ACC-CAT-GAC-GA-3′ (SEQ ID NO: 4); Invitrogen/Life Technologies, Carlsbad, Calif.). Fold-changes in PCR (normalized to 5 GAPDH) were calculated from untreated.

The test system of another experiment is Elastin. Nature of the experiment: Induction of Elastin gene expression in primary human dermal fibroblasts (quantitative PCR). Particulars: summary statement. The format is cell-based. As for the experimental part: as §1
Another experiment relates to MMP-9. In words: Inhibition of TNF-α-induced MMP-9 levels in epidermal equivalents (EPI 200 HCF). Conditions: summary statement. The format is cell-based, human. As for the experimental part: The ability of 1-hydroxyl 3,5-bis(4′hydroxyl styryl)benzene to inhibit TNF-a induced MMP-9 levels was tested at different concentrations as follows. The formation of TNF-α induced MMP-9 is involved in the undesirable breakdown of extracellular matrix in human skin.
Epidermal equivalents (EPI 200 HCF) were purchased from MatTek (Ashland, Mass.). Upon receipt, the epidermal equivalents were incubated for 24 hours at 37° C. in maintenance medium without hydrocortisone. The equivalents were topically treated (2 mg/cm^2) with 1-hydroxyl 3,5-bis(4′hydroxyl styryl)benzene extracts in a 70% ethanol/30% propylene glycol vehicle 2 hours before treatment with TNF-α (100 ng/mL). the equivalents were incubated for 48 hours at 37° C. with maintenance medium then supernatants were analyzed for MMP-9 using commercially available kits (R&D Systems, Minneapolis, Minn.).

`Oc1ccc(C=Cc2cc(O)cc(C=Cc3ccc(O)cc3)c2)cc1` [1-hydroxyl 3,5-bis(4′hydroxylstyryl)benzene]: the “reduction in UV-induced inflammation in human skin cells (in words)” value in the experiment with IL-8 cytokine release was “strong reduction”.
As for `Oc1ccc(/C=C/c2cc(O)cc(/C=C/c3ccc(O)cc3)c2)cc1` [1-hydroxyl 3,5-bis(4′hydroxylstyryl)benzene], in the experiment with IL-8 cytokine release, the “reduction in UV-induced inflammation in human skin cells (in words)” value was “strong reduction”. Further, the “Collagen 1A Normalized Fold-change in PCR (Mean)” value came out at 1.36 in the experiment with Collagen 1A (0.1 ug/mL with TNF-α (10 ng/mL)) and 2.96 in the experiment on Collagen 1A (0.1 ug/mL, without TNF-a). Also, the “expression of genes associated with collagen production (in words)” value with Collagen 1A (summary statement) is reported as “increased”. Moreover, in the experiment with Elastin, the “expression of genes associated with elastin production (in words)” value is “increased”. For the same compound, in the experiment on MMP-9, the “formation of TNF-α induced MMP-9 (in words)” value is recorded as “inhibited”.
